This note sets out measurements from US7648711B2, “Dimethicone-containing sustained release injection formulation” (priority 2003, dated 2010).

The data set is described as follows: Solubility of therapeutic drugs in dimethicone. Format: physicochemical. The text has this:
Thus, from the view point of bio-compatibility, dimethicone is suitable to be used as medium to prepare formulation for subcutaneous injection. […] Therefore, this will not pose any stability problem when using silicone as medium to prepare suspensions comprising the aforesaid drugs, which is one of the important factors usually affecting the sustained action of a long-lasting formulation. […] When hydrogenated castor oil used within the proper range (0.2% to 0.5%), the resulting liquid suspension is better in terms of stability, fluidibility, injectability and long-lasting releasing effect than the injection formulation prepared using water, vegetable oil or other organic liquid as the suspension medium. Hydrogenated castor oil functions as a suspending agent and enhances the effect of sustained releasing. In addition, when the formulation of the present invention is prepared by the micro powder crystallizing method, the presence of hydrogenated castor oil suppresses the growth of the crystal nucleus of active ingredients, whereby producing micro powder of active ingredients with a particle size of 20 micrometers or smaller. (4) By mixing the active ingredients with hydrogenated castor oil or with the-combination of hydrogenated castor oil and ethylcellulose to produce solid dispersion micro powder with particle size smaller than 300 micrometers, then dispersing the micro powder in silicone oil and grinding with a colloid mill or a ball mill, a long lasting release formulation containing solid dispersion of various particle sizes (from 10 micrometer to 150 micrometers) can be produced. Further, the sustained releasing effect of the formulation may be modified by adjusting the particle size of the solid dispersion and the proportion of hydrogenated castor oil relative to the active ingredients. For instance, sustained release formulations with various durations of effectiveness may be prepared as follows: mixing avermectins with hydrogenated castor oil to produce two solid dispersions with the avermectins to hydrogenated castor oil equal to 1:2 and 2:1, respectively, then mixing the two solid dispersions at a given ratio and dispersing the mixture in silicone oil, and producing the solid dispersion in the system with the particle size varying between 85 micrometers to 120 micrometers by controlling the extent of grinding. The formulation can provide an effective sustained releasing period up to 140 days following a single administration. Furthermore, the injection prepared by the above method has better injectability, stability and biocompatibility than water or vegetable oil based sustained release formulations for solid dispersion micro powder of avermectins/hydrogenated castor oil. Specifically, the formulation using water as medium has three disadvantages. First, it has difficulty to maintain an effective sustained releasing for more than 80 days. Second, it has poor injectability and, without adding more water soluble suspension assisting agents, solid suspension phase may “separate” from the water phase, causing injection failure due to blocking of the syringe needle. Third, it results in tissue lumps around the injection site. Other organic liquid based long-lasting formulations have similar problems.

Read-outs that look alike come from different tables or passages of the source.

Regarding `CC1(C)S[C@@H]2[C@H](NC(=O)Cc3ccccc3)C(=O)N2[C@H]1C(=O)[O-].[K+]` [penicillin G potassium salt], the Solubility in dimethicone entry is listed as “less than 0.01%”.
The same measure, in the same setting: the result for `CC1(C)S[C@@H]2[C@H](NC(=O)Cc3ccccc3)C(=O)N2[C@H]1C(=O)[O-].[Na+]` [penicillin G sodium salt] reads “less than 0.01%”.
For `O=C(NC(=O)c1c(F)cccc1F)Nc1ccc(Cl)cc1` [diflubenzuron], for the setting “dimethicone”, the Solubility in dimethicone result is listed as “less than 0.01%”.
As for `O=[N+]([O-])NC1=NCCN1Cc1ccc(Cl)nc1` [imidacloprid], the Solubility in dimethicone result was “less than 0.01%”.
The same measure, in the same setting: the value for `CO/N=C(\C(=O)N[C@@H]1C(=O)N2C(C(=O)O)=C(CSC(=O)c3ccco3)CS[C@H]12)c1csc(N)n1` [ceftiofur] was “less than 0.01%”.
